Where a name gives a salt, the structure may show the parent alone.
Each molecule was assayed against T1, protein farnesyltransferase (Rattus norvegicus, UniProt Q02293+Q04631) (assay: in vitro inhibition of protein farnesyltransferase (scintillation proximity assay, biotin-K Ras B fragment)). Details: at 1 × 10^-5 M.
T1 construct: Rat brain protein farnesyltransferase activity is measured; from tissue; host or cells: rat brain; purified according to Reiss et al., Cell 62:81-88 (1990), steps one through three
Format: biochemical
Outline: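 Rat brain enzyme, purified through three steps, in a scintillation proximity assay kit with biotin-K Ras B fragment substrate at 0.1 mM final. Value is % inhibition of farnesylation.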
In the case of CSCC[C@H](NC(=O)c1ccc(CNCCN2CCOCC2)cc1-c1ccccc1)C(=O)O [Example 365], the inhibition at 10 µM is reported as 97%.
Molecule CSCC[C@H](NC(=O)c1ccc(CNc2cc(C)on2)cc1-c1ccccc1)C(=O)O [Example 372] has an inhibition at 10 µM of 69%.
In the case of CSCC[C@H](NC(=O)c1ccc(CNc2ccc(C(C)C)cc2)cc1-c1ccccc1)C(=O)O [Example 692], the inhibition at 10 µM is reported as 74%.
Work on CSCC[C@H](NC(=O)c1ccc(CNCCCN2CCOCC2)cc1-c1ccccc1)C(=O)O [Example 377] yielded an inhibition at 10 µM of 71%.
Molecule CSCC[C@H](NC(=O)c1ccc(CNc2cccc(Oc3ccccc3)c2)cc1-c1ccccc1)C(=O)O [Example 686] has an inhibition at 10 µM of 48%.

Same assay, conditions: at 1 × 10^-6 M
With CSCC[C@H](NC(=O)c1ccc(OCCOc2ccccc2)cc1-c1ccccc1C)C(=O)O [Example 561] the “% inhibition of farnesyltransferase” value was 91%.
In the case of CSCC[C@H](NC(=O)c1ccc(CSCc2ccccc2C)cc1-c1ccccc1C)C(=O)[O-].[Li+] [Example 557], the “% inhibition of farnesyltransferase” value is reported as 93%.
CSCC[C@H](NC(=O)c1ccc(CNC(C)(C)CC2CCCCC2)cc1-c1ccccc1C)C(=O)O [Example 308] was tested, and the “% inhibition of farnesyltransferase” value was 62%.
In the case of Cc1ccccc1-c1cc(CNC(C)(C)Cc2ccccc2)ccc1C(=O)N[C@@H](CCS(C)(=O)=O)C(=O)O [Example 311], the “% inhibition of farnesyltransferase” value is reported as 97%.
For CSCC[C@H](NC(=O)c1ccc(CCc2cccc3ccccc23)cc1-c1ccccc1C)C(=O)[O-].[Li+] [Example 467], the “% inhibition of farnesyltransferase” value was 97%.
In the case of CSCC[C@H](NC(=O)c1ccc(CN(C(C)C)C(C)(C)CC2CCCCC2)cc1-c1ccccc1C)C(=O)O [Example 318], the “% inhibition of farnesyltransferase” value is reported as 98%.
For CSCC[C@H](NC(=O)c1ccc(COC2CCN(Cc3ccccc3)C2)cc1-c1ccccc1C)C(=O)O (stereo partly shown) [Example 987], the “% inhibition of farnesyltransferase” value was 93%.
In the case of CSCC[C@H](NC(=O)c1ccc(CCc2ccccc2-c2ccccc2)cc1-c1ccccc1C)C(=O)[O-].[Li+] [Example 452], the “% inhibition of farnesyltransferase” value is reported as 96%.
CSCC[C@H](NC(=O)c1ccc(CN(C2CC2)C(C)(C)CC2CCCCC2)cc1-c1ccccc1C)C(=O)O [Example 316] was tested, and the “% inhibition of farnesyltransferase” value was 63%.
For CSCC[C@H](NC(=O)c1ccc(OCCCOc2ccccc2)cc1-c1ccccc1C)C(=O)O [Example 566], the “% inhibition of farnesyltransferase” value was 98%.

Same assay, conditions: at 1 × 10^-6 M; read-out: % inhibition of farnesyltransferase
With CSCC[C@H](NC(=O)c1ccc(CNCc2ccc(N)cc2)cc1-c1ccccc1)C(=O)O [Example 653] the inhibition at 1 µM was 62%.
Work on CSCC[C@H](NC(=O)c1ccc(CNc2ccc(CCO)cc2)cc1-c1ccccc1)C(=O)O [Example 694] yielded an inhibition at 1 µM of 45%.
Molecule CSCC[C@H](NC(=O)c1ccc(CN(Cc2cncs2)S(C)(=O)=O)cc1-c1ccccc1C)C(=O)O [Example 878, N-[4-N-(methanesulfonyl-N-thiazol-2-ylmethyl)aniinomethyl-2-(2-methylphenyl)-benzoyl]methionine] has an inhibition at 1 µM of 95%.
With CSCC[C@H](NC(=O)c1ccc(CNCCN(C(C)C)C(C)C)cc1-c1ccccc1)C(=O)O [Example 636] the inhibition at 1 µM was 72%.
For CSCC[C@H](NC(=O)c1ccc(CN[C@H](/C=C\CC(C)C)CC2CCCCC2)cc1-c1ccccc1)C(=O)O [Example 666], the inhibition at 1 µM was 82%.
In the case of CSCC[C@H](NC(=O)c1ccc(CNC(CO)Cc2ccc(Cl)cc2)cc1-c1ccccc1)C(=O)O (stereo partly shown) [Example 662], the inhibition at 1 µM is reported as 68%.
CSCC[C@H](NC(=O)c1ccc(CNCCC2CCCCC2)cc1-c1ccccc1C)C(=O)O [Example 607, N-[4-(N-2-cyclohexylethylaminomethyl)-2-(2-methylphenyl)benzoyl]methionine Trifluoroacetate Salt] gave an inhibition at 1 µM of 96%.

Same assay, conditions: at 1 × 10^-7 M
For CSCC[C@H](NC(=O)c1ccc(CCc2ccccc2Oc2ccccc2)cc1-c1ccccc1C)C(=O)[O-].[Li+] [Example 455], the “% inhibition of farnesyltransferase” value was 83%.
CSCC[C@H](NC(=O)c1ccc(COc2ccc(Oc3ccccc3)cc2)cc1-c1ccccc1C)C(=O)[O-].[Li+] [Example 795] was tested, and the “% inhibition of farnesyltransferase” value was 87%.
CSCC[C@H](NC(=O)c1ccc(CCc2ccc(Oc3ccccc3Cl)cc2)cc1-c1ccccc1C)C(=O)O [Example 855] was tested, and the “% inhibition of farnesyltransferase” value was 92%.
With CSCC[C@H](NC(=O)c1ccc(CSc2nc3ccccc3c(=O)[nH]2)cc1-c1ccccc1C)C(=O)O [Example 745] the “% inhibition of farnesyltransferase” value was 93%.
CSCC[C@H](NC(=O)c1ccc(COCc2ccc(-c3cccc(F)c3)o2)cc1-c1ccccc1C)C(=O)[O-].[Li+] [Example 436] was tested, and the “% inhibition of farnesyltransferase” value was 89%.
With CSCC[C@H](NC(=O)c1ccc(COCCc2ccc(Cl)cc2)cc1-c1ccccc1C)C(=O)[O-].[Li+] [Example 590] the “% inhibition of farnesyltransferase” value was 95%.

Same assay, conditions: at 1 × 10^-7 M; read-out: % inhibition of farnesyltransferase
For CSCC[C@H](NC(=O)c1ccc(CNC(Cc2ccccc2)Cc2ccccc2)cc1-c1ccccc1C)C(=O)O [Example 523, N-[4-N-(1,3-diphenylpropan-2-yl)aminomethyl-2-(2-methylphenyl)benzoyl]methionine lithium salt], the inhibition at 0.1 µM was 97%.
CSCC[C@H](NC(=O)c1ccc(CN(c2ccccc2)S(=O)(=O)c2ccccc2)cc1-c1ccccc1C)C(=O)O [Example 769, N-[4-N-(N-phenyl-N-benzenesulfonylaminomethyl)-2-(2-methylphenyl)benzoyl]methionine lithium salt] gave an inhibition at 0.1 µM of 90%.

Same assay, conditions: at 1 × 10^-8 M
In the case of CSCC[C@H](NC(=O)c1ccc(CSCc2ccccc2)cc1-c1ccccc1C)C(=O)NS(=O)(=O)c1ccc(C)cc1 [Example 586], the “% inhibition of farnesyltransferase” value is reported as 90%.
With CCCCC(OCc1ccc(C(=O)N[C@@H](CCSC)C(=O)O)c(-c2ccccc2C)c1)c1cncs1 (stereo partly shown) [Example 985] the “% inhibition of farnesyltransferase” value was 89%.
CSCC[C@H](NC(=O)c1ccc(COC(Cc2ccccc2)c2cncs2)cc1-c1ccccc1C)C(=O)[O-].[Li+] (stereo partly shown) [Example 828] was tested, and the “% inhibition of farnesyltransferase” value was 87%.
For CSCC[C@H](NC(=O)c1ccc(CN2CCC[C@H]2COCC2CCCCC2)cc1-c1ccccc1C)C(=O)O [Example 992], the “% inhibition of farnesyltransferase” value was 93%.
CSCC[C@H](NC(=O)c1ccc(COCc2occc2-c2ccc(Cl)cc2)cc1-c1ccccc1C)C(=O)[O-].[Li+] [Example 827] was tested, and the “% inhibition of farnesyltransferase” value was 77%.

Same assay, conditions: at 1 × 10^-8 M; read-out: % inhibition of farnesyltransferase
Molecule CSCC[C@H](NC(=O)c1ccc(CN(CCc2ccccc2)c2cncnc2)cc1-c1ccccc1C)C(=O)O [Example 518, N-[4-N-(2-phenyethyl)-N-pyrimidin-5-ylaminomethyl-2-(2-methylphenyl)benzoyl]methionine lithium salt] has an inhibition at 0.01 µM of 90%.
For COc1ccc(N(Cc2ccccc2)Cc2ccc(C(=O)N[C@@H](CCSC)C(=O)O)c(-c3ccccc3C)c2)cc1 [Example 840, N-[4-(N-benzyl-N-(4-methoxyphenyl)aaminomethyl)-2-(2-methylphenyl)benzoyl]methionine lithium salt], the inhibition at 0.01 µM was 73%.
Work on CSCC[C@H](NC(=O)c1ccc(CN(Cc2cncs2)S(=O)(=O)c2ccc(C)cc2)cc1-c1ccccc1C)C(=O)O [Example 877] yielded an inhibition at 0.01 µM of 68%.
CCSC[C@H](CC1CCCCC1)N(C)Cc1ccc(C(=O)N[C@@H](CCSC)C(=O)O)c(-c2ccccc2C)c1 [Example 944, N-[4-N-(3-Cyclohexyl-1-ethylthiopropan-2-yl)-N-methylaminomethyl-2-(2-methylphenyl)benzoyl]-methionine hydrochloride salt] showed an inhibition at 0.01 µM of 88%.
In the case of CSCC[C@H](NC(=O)c1ccc(NC[C@H]2NCC[C@H]2S)cc1-c1ccccc1)C(=O)O [Example 960, N-[4-((2S,4R)-4-thiolpyrrolidin-2-ylmethylamino)-2-phenylbenzoyl]methionine], the inhibition at 0.01 µM is reported as greater than 50%.
